In paper PMC3895568, “Isolation and characterization of Leucine dehydrogenase from a thermophilic Citrobacter freundii JK-91strain Isolated from Jask Port” (Iranian Journal of Microbiology, 2013):

Test system: T1, LeuDH (Leucine dehydrogenase, EC 1.4.1.9)
T1 construct: native enzyme purified from isolate JK-91 (ammonium sulfate, DEAE-Toyopearl, TSK gel G3000SW); subunit 40 kDa, about 320 kDa, octamer
Assay: NADH formation at […] nm, oxidative deamination
Type: biochemical, Citrobacter freundii
Settings: co-substrate NAD+; standard assay 50 mM glycine-NaOH pH 10.4, 100 mM NaCl, 2.5 mM NAD+; exact conditions and temperature of the kinetics not stated

`CC(C)C[C@H](N)C(=O)O` [L-leucine] gave a Km of 1200 µM.
